Values after ≈ are worked out from the molar mass of the structure shown.
How the values were obtained:
[1] = system: MRSA ATCC 43300; test: MIC/MBC by broth dilution (CLSI); assay type: cell-based, Staphylococcus aureus; details: for MBC / MIC: Staphylococcus aureus; for MBC: MRSA ATCC 43300, 99.9% of the bacteria killed; for MIC: MRSA ATCC 43300, broth dilution, 24 h, 37 °C, read-out: MIC; for MBC/MIC ratio: against MRSA
Description: (§1) The in vitro antimicrobial activity of the pleuromutilin derivatives was assessed against MRSA ATCC 43300, S. aureus ATCC 29213, S. aureus 144 and S. aureus AD3 according to the Clinical and Laboratory Standards Institute (CLSI). Tiamulin was used as a positive control drug. The results were summarized as the minimum inhibitory concentration (MIC) and the minimum bactericidal concentration (MBC) in Table 1 and Table 2. In addition, MIC results for the pleuromutilin derivatives against four Gram-negative bacteria are supplied in Tables S2 and S3.
(§2) The MIC and MBC values of the synthesized novel pleuromutilin derivatives against MRSA ATCC 43300, S. aureus ATCC 29213, S. aureus 144 and S. aureus AD3 were measured. Tiamulin was used as a positive control drug. The MIC and MBC values were manipulated by broth dilution according to the Clinical and Laboratory Standards (CLSI). Each compound to be measured was dissolved in a solution of 95% deionized water, 2.5% dimethyl sulfoxide (DMSO) and 2.5% Tween-80 with a concentration of 1280 µg/mL. Subsequently, serial twofold dilutions were made in a concentration range from 64 µg/mL to 0.0625 µg/mL. The working bacterial suspension was inoculated into each well, which provided the final inoculum density of 5 × 10^5 CFU/mL. Three parallel experiments were performed for each compound.
(§3) Overall, 25 µL of the bacterial solution from the wells with no obvious bacterial growth was inoculated on MH agar plates. Then, the inoculated MH agar plates were further cultured at 37 °C for 24 h.

[2] = system: S. aureus 144; test: MIC/MBC by broth dilution (CLSI); assay type: cell-based; details: Staphylococcus aureus; S. aureus 144 (clinical strain)
Description: as §1, §2, §3

[3] = system: S. aureus AD3; test: MIC/MBC by broth dilution (CLSI); assay type: cell-based; details: Staphylococcus aureus; S. aureus AD3 (clinical strain)
Description: as §1, §2, §3

[4] = system: S. aureus ATCC 29213; test: MIC/MBC by broth dilution (CLSI); assay type: cell-based; details: Staphylococcus aureus, ATCC29213; for MBC: S. aureus ATCC 29213; for MIC: S. aureus ATCC 29213, broth dilution, 24 h, 37 °C
Description: as §1, §2, §3

[5] = system: MRSA ATCC 43300; test: Constant concentration time–kill curves; assay type: cell-based, Staphylococcus aureus; details: for type of bactericidal kinetics: time–kill curves, 1 to 32 × MIC
Description: Time–kill kinetic assays were performed, which were used to investigate the in vitro bactericidal kinetic effect of compounds 12c, 19c, 22c and tiamulin.
Time–kill curve assays were established with the MIC value to investigate the antibacterial effect of constant drug concentration on MRSA. […] MRSA ATCC 43300 was incubated in MH broth at 37 °C for 4.5 h and diluted to 1 × 10^6 CFU/mL in MH broth. The saline control group was subjected to the same schedule but 0.9% saline water was added instead of the test compound. All the samples were incubated in an oscillating thermostatic at 37 °C, and then 100 μL of the mixture was extracted to 900 μL of sterile saline (0.9%) at 0, 3, 6, 9, 12 and 24 h, respectively. Samples were serially diluted 10-fold in sterile saline (0.9%) and inoculated onto agar plates. The colonies were counted after incubation at 37 °C for 24 h. Three independent experiments were performed according to our previous work. Time–kill curves were constructed by plotting the log10 CFU per millilitre versus time, and the change in bacterial concentration was determined.

[6] = system: MRSA ATCC 43300; test: Post-antibiotic effect (PAE); assay type: cell-based, Staphylococcus aureus
Description: PAE has been considered as pharmacodynamic assistance which provides a reference for the rational formulation of dosing regimen. PAE refers to the temporary suppression of bacterial growth following transient antibiotic treatment. PAE assays were conducted for compounds 12c and 22c.
PAE is calculated from growth curves on the difference in time required for the number (1 log10 CFU/mL) of drug-exposed and unexposed microbes. […] The PAE values of compounds 12c and 22c increased with increasing incubation time.
PAE of compounds 12c and 22c on MRSA ATCC 43300 was determined using MH broth according to our previous work. The final concentration of MRSA was 1 × 10^6 CFU/mL by dilution with MH broth. Compounds 12c, 22c and tiamulin were supplemented in the suspension at a final concentration of 2 × MIC and 4 × MIC, respectively. The negative control group contained untreated MRSA bacterial cells. The test tubes were incubated with a 37 °C constant temperature vibration incubator for 1 and 2 h. After incubation, the test compound was removed from the sample by diluting 1000-fold with the preheated MH broth. Next, 100 μL of suspension from each culture was 10-fold diluted in sterile saline and inoculated on MH agar plates at 0, 2, 4, 6 and 8 h after inoculation. The number of colonies was calculated after incubation at 37 °C for 24 h. The experiments were performed in triplicate.

[7] = system: MRSA ATCC 43300; test: Neutropenic murine thigh infection model; assay type: in vivo; details: neutropenic mice, 20 mg/kg, 24 h after dosing, n = 6/group
Description: Therefore, the in vivo efficacy of compounds 12c and 22c were assessed using the murine neutropenic thigh infection model. Mice groups treated with saline and tiamulin were chosen as the negative and positive controls.
Model experiments of neutropenic mouse thigh infection were manipulated as described in the literature. Female, six-week-old, specific-pathogen-free mice weighing approximately 23~26 g were used throughout the study. Mice were rendered neutropenic by injection of cyclophosphamide (Mead Johnson Pharmaceuticals, Evansville, IN) on day 4 (150 mg/kg) and day 1 (100 mg/kg) before the experiment. The neutrophil numbers in mice blood should be <0.1 × 10^9/L [34]. In total, 0.1 mL of MH broth of MRSA (10^7 CFU/mL) was inoculated into each thigh of the neutropenic mice. Mice were divided into 4 groups (6 mice per group), including control (sterile saline), compounds 12c, 22c and tiamulin groups. After 3 h post-infection, the corresponding drugs were injected into each mouse’s thigh. Mice were euthanized following intravenous injection for 24 h. Thigh tissue of each mouse was removed, collected, weighed and homogenized in 3 mL of ice sterile saline. Six ten-fold serial dilutions were performed and 25 μL of the bacterial solution from each tube was plated on MH agar plates. The resulting colonies were counted after 24 h incubation at 37 °C. The protocol for this study was reviewed and approved by the Institutional Animal Care and Use Committee of the South China Agricultural University.

[8] = system: 16-HBE cells; test: Cytotoxicity MTT assay; assay type: cell-based, human; details: 1~8 μg/mL, 16 h
Description: (§4) The presence of compounds can influence cellular basic physiological processes, suppress proliferation and even reduce cell survival, etc. In the community, MRSA generally causes respiratory infection. Therefore, cytotoxicity was evaluated to explore the effect of compounds 12c and 22c on the viability of the respiratory tract cells 16-HBE (human bronchial epithelial cell line). RAW 264.7 (mouse peritoneal macrophage cell line) and Caco-2 (human epithelial colorectal adenocarcinoma cell line) were also used to evaluate the cytotoxicity of compounds 12c and 22c by MTT assay.
(§5) Cytotoxicity of the test compounds was assessed using the conventional MTT method. RAW 264.7 murine macrophage cells, Caco-2 cells and 16-HBE were used in this experiment. The cells were seeded into 96-well plates at a density of 1.0 × 10^5 cells per well. After 4 h at 37 °C, the cells were treated with compounds 12c and 22c at various concentrations and incubated at 37 °C for 16 h. Next, MTT (0.5 mg/mL in PBS, 100 μL/well) was added sequentially to each well in a humidified atmosphere of 95% air and 5% CO2 incubator and the incubation continued for an additional four hours. After incubation, the medium was peeled off and DMSO (150 μL/well) was added to dissolve the cells, and then the incubation was continued for 30 min. At the end of this period, the absorbance was measured at 490 nm by a microplate spectrophotometer (BIO-TEK Instruments, Winooski, VT, USA).

[9] = system: Caco-2 cells; test: Cytotoxicity MTT assay; assay type: cell-based, human; details: 1~8 μg/mL, 16 h
Description: as §4, §5

MIC [1] [µg/mL] | MIC [2] [µg/mL] | MIC [3] [µg/mL] | MIC [4] [µg/mL] | MBC/MIC ratio [1] | melting point [°C] | SMILES | MBC [1] [µg/mL] | MBC [2] [µg/mL] | MBC [3] [µg/mL] | MBC [4] [µg/mL] | MRSA killed in time–kill assay ([5]; 2 × MIC, 24 h incubation) [%] | reduction of MRSA in time–kill assay ([5]; 2 × MIC, 24 h incubation) [log10 CFU/mL] | type of bactericidal kinetics [5] | PAE ([6]; 2 × MIC, exposure for 1 h) [h] | PAE ([6]; 2 × MIC, exposure for 2 h) [h] | PAE ([6]; 4 × MIC, exposure for 1 h) [h] | PAE ([6]; 4 × MIC, exposure for 2 h) [h] | reduction of MRSA load in thigh vs growth control [7] [log10 CFU/mL] | reduction of MRSA in time–kill assay ([5]; 4 × MIC) [log10 CFU/mL] | also measured
0.5 (≈ 1.01 µM) | 1 (≈ 2.03 µM) | 1 (≈ 2.03 µM) | 1 (≈ 2.03 µM) |  |  | C=C[C@]1(C)C[C@@H](OC(=O)CSCCN(CC)CC)[C@]2(C)[C@H](C)CC[C@]3(CCC(=O)[C@H]32)[C@@H](C)[C@@H]1O [Tiamulin, tiamulin, reference compound] | 1 (≈ 2.03 µM) | 2 (≈ 4.05 µM) | 2 (≈ 4.05 µM) | 1 (≈ 2.03 µM) | 99.9 | −3.78 | time-dependent | 0.27 | 1.23 | 0.42 | 1.31 | −0.56 |  | 
0.25 (≈ 0.341 µM) | 1 (≈ 1.37 µM) | 0.25 (≈ 0.341 µM) | 0.25 (≈ 0.341 µM) | ≤ 2 | 141 to 144 | C=C[C@]1(C)C[C@@H](OC(=O)CSc2ccc(Nc3nc(Cl)nc4c3cnn4-c3ccc(F)cc3)cc2)[C@]2(C)[C@H](C)CC[C@]3(CCC(=O)[C@H]32)[C@@H](C)[C@@H]1O [Compound 19c, 22-[4-(6-Chloro-1-(4-fluorophenyl)-1H-pyrazolo[3,4-d]pyrimidine-4-yl)amino-Phenylsulfanyl]-22-deoxypleuromutilin] | 0.5 (≈ 0.683 µM) | 2 (≈ 2.73 µM) | 1 (≈ 1.37 µM) | 0.5 (≈ 0.683 µM) | 99.9 | −3.57 | time-dependent |  |  |  |  |  | −5.16 | 
0.25 (≈ 0.343 µM) | 0.5 (≈ 0.686 µM) | 0.125 (≈ 0.172 µM) | 0.25 (≈ 0.343 µM) | ≤ 2 | 95 to 97 | C=C[C@]1(C)C[C@@H](OC(=O)CSc2ccc(Nc3nc(Cl)nc4c3cnn4-c3cccc(C)c3)cc2)[C@]2(C)[C@H](C)CC[C@]3(CCC(=O)[C@H]32)[C@@H](C)[C@@H]1O [Compound 12c, 22-[4-(6-Chloro-1-(3-methylphenyl)-1H-pyrazolo[3,4-d]pyrimidine-4-yl)amino-Phenylsulfanyl]-22-deoxypleuromutilin] | 0.5 (≈ 0.686 µM) | 1 (≈ 1.37 µM) | 0.25 (≈ 0.343 µM) | 0.5 (≈ 0.686 µM) | 99.99 | −4.51 | time-dependent | 0.37 | 1.72 | 0.43 | 1.73 | −0.79 | −5.76 | effect on viability of 16-HBE cells [8]: did not affect the viability; effect on viability of Caco-2 cells [9]: did not affect the viability
> 64 | > 64 | > 64 | > 64 |  | 151 to 156 | C=C[C@]1(C)C[C@@H](OC(=O)CNc2nc(Cl)nc3c2cnn3-c2cc(Cl)cc(Cl)c2)[C@]2(C)[C@H](C)CC[C@]3(CCC(=O)[C@H]32)[C@@H](C)[C@@H]1O [Compound 26b, 22-[(6-Chloro-1-(3,5-dichlorophenyl)-1H-pyrazolo[3,4-d]pyrimidine-4-yl)amino]-22-deoxypleuromutilin] |  |  |  |  |  |  |  |  |  |  |  |  |  | 
> 64 | > 64 | > 64 | > 64 |  | 97 to 99 | C=C[C@]1(C)C[C@@H](OC(=O)CSc2ccc(Nc3nc(Cl)nc4c3cnn4-c3ccc(CC)cc3)cc2)[C@]2(C)[C@H](C)CC[C@]3(CCC(=O)[C@H]32)[C@@H](C)[C@@H]1O [Compound 16c, 22-[4-(6-Chloro-1-(4-ethylphenyl)-1H-pyrazolo[3,4-d]pyrimidine-4-yl)amino-Phenylsulfanyl]-22-deoxypleuromutilin] |  |  |  |  |  |  |  |  |  |  |  |  |  | 

— paper PMC10180054, “Design, Synthesis and Biological Evaluation of Novel Pleuromutilin Derivatives Containing 6-Chloro-1-R-1H-pyrazolo[3,4-d]pyrimidine-4-amino Side Chain” (Molecules, 2023)
